In US8022036B2, “Use of thymosin alpha 1 for the treatment of immunological diseases” (Sigma-Tau Industrie Farmaceutiche Riunite S.p.A., priority 2006, dated 2011):
No end group written: not given here.

Tests used:
[1] = GVHD in experimental HSCT with donor T cells and DCs; format: in vivo, mouse; conditions: 10^5 donor T cells plus Thymosin alpha 1-treated GM-DCs, uninfected mice
Method: Human peripheral blood mononuclear cells were obtained from healthy donors and seven recipients of T-cell depleted haploidentical HSCT, upon written informed consent. Donor typing, engraftment and GVHD were assessed as described (Blood. 2005; 106; 4397-4406). Experimental HSCT model Lethally irradiated (8 Gy) C57BL6 mice were infused with T cell-depleted bone marrow cells from BALB/c mice (Blood. 2003; 102:3807-3814). For GVHD, purified donor CD3+ T splenocytes were added to the graft (Science. 2002; 295:2097-2100). Individual mice were graded weekly from 0-2 for each GVHD criterion (see legend to FIG. 3) without knowledge of treatment group.
Mice were either left uninfected for the assessment of GVHD or infected for the assessment of susceptibility to infection. […]
Resistance to infection was assessed in terms of MST (median survival time in days) and fungal growth in the lung ([…] glucosamine content, bars indicating standard errors) 3 days after infection or at the time of death (A). […] The degree of systemic GVHD was assessed by a scoring system that sums changes in five clinical parameters: weight loss, posture (hunching), activity, fur texture, and skin integrity (maximum index=10). […]

[2] = system: TLN CD4+ T lymphocytes, neutrophils; experiment: Proliferation of TLN cells and suppressive activity of CD4+CD25+ T reg cells from DC-treated HSCT mice; format: in vivo, mouse
Method: IDO expression and functional activity were assessed as described in Nat. Immunol. 2002; 3:1097-1101. Generation, purification and activity of T reg cells Splenic CD4+ T-cells were cocultured with conidia-pulsed DCs for 5 days […] before flow cytometry or ELISPOT assay. 1-MT (Sigma-Aldrich) was used at 2 μM. CD4+CD25+ and CD4+CD25− cells (>90% pure on FACS analysis) were separated by magnetic cell sorting from lung and TLN (J. Immunol. 2006; 176:1712-1723). For T reg cell inhibition, 5×10^4 TLN T reg cells were added to 3×10^5 CD4+CD25− cells, both from transplanted mice, stimulated with 3×10^4 autologous Aspergillus conidia-pulsed spDCs or with or 1.5×10^5 allogeneic spDCs from naïve donor mice for five days before H^3-thymidine labeling. Purified peritoneal CD 11b+Gr−1+PMN (>98% pure on FACS analysis) (2×10^6) were exposed to resting conidia in the presence of 4×10^5 CD4+CD25+ for 60 min for oxidant production or 24 hours for cytokine production (J. Immunol. 2006; 176:1712-1723).
Mice received twice intraperitoneal injections of DCs, at weekly interval, starting a day after HSCT and infected a week after the last DC administration. Three days later, lung homogenates, CD4+ T cells (>98% on FACS analysis), CD4+CD25− (>98%) or CD4+CD25+ (>82%) purified with the specific Miltenyi Biotec isolation kits were assessed for pattern of pro- and anti-inflammatory (TNF-a/IL-10 in lung homogenates), Th1 (IFN-γ) or Th2 (IL-4) cytokine production by CD4+ cells stimulated with Aspergillus-pulsed DCs (Blood. 2003; 102:3807-3814) frequency of CD25+ IL-10^+ TGF-β+ T reg cells, lymphoproliferation and gene expression by RT-PCR. For proliferation, TLN CD4+ T lymphocytes were plated (10^5 cells/well) with 10^5 cells/well irradiated allogeneic splenocytes or autologous spDCs pulsed with conidia or 10 μg/mL Con A for five days before H^3-thymidine labeling.
(A) Murine CD4+ T lymphocytes from TLN of transplanted mice were stimulated with irradiated allogeneic splenocytes, autologous splenic DCs stimulated with conidia or Concanavalin A. T cell proliferation was assessed in a 5-day MLR assay and measured by H^3thymidine incorporation over the last 8 hours, (*) P<0.05, transplanted versus donor mice. (**) P<0.05, T cell- and/or DC-treated mice versus untreated mice. (***) P<0.05, Thymosin alpha 1-treated DCs versus untreated DCs. […] (D) Peritoneal neutrophils (PMN) were exposed to resting conidia in the presence of lung CD4+CD25+ T cells from FL-DCtreated (a) or Thymosin alpha 1-GM-DC-treated mice (b) for 60 min (for oxidant production, expressed as nanomoles O2-/10^6 cells) or 24 hours for cytokine production (pg/mL by ELISA). […]

[3] = mice receiving Thymosin alpha 1-treated GM-DCs

Thymosin alpha 1: naturally occurring thymic peptide; supplied as purified, endotoxin-free sterile lyophilized acetylated polypeptide from SciClone Pharmaceuticals (Ac-SDAAVDTSSEITTKDLKEKKEVVEEAEN; UniProt P06454 2-29, looked up)
acceleration of GVHD induction by GM-DCs [1]: totally prevented the effect
TNF-a and oxidant production of neutrophils in the presence of lung T reg cells ([2]; T reg fraction induced by Thymosin alpha 1-treated GM-DCs): significantly inhibited
alloreactivity and antigen-specific responses of CD4+CD25- T cells in the presence of CD4+CD25+ T cells ([2]; T reg from mice receiving Thymosin alpha 1-treated GM-DCs): both reduced
alloreactivity (proliferation of TLN cells to allogeneic splenocytes) [2, 3]: decreased
pathogen-specific reactivity (proliferation to Aspergillus conidia) [2, 3]: recovered
